A word on the Kd: it is the free concentration of one partner at which half of the binding sites on the other are occupied at equilibrium, for simple one-to-one binding. By IC50 is commonly meant the concentration needed to halve the response being measured.

Consider two molecules from publication PMC8329300, “X-ray crystallography reveals molecular recognition mechanism for sugar binding in a melibiose transporter MelB” (Communications Biology, 2021).

Like-named read-outs stand apart in the source and are kept apart here.

One experiment deals with T1, D59C MelBSt (Salmonella typhimurium, UniProt P30878, D59C).
T1 construct: Cys scanning mutagenesis for the full-length MelBSt; His10 (C); made in house; host or cells: E. coli DW2
Put plainly: biochemical. The format is binding. The method, then:
(§1) All ITC ligand-binding assays were performed with the TA Instruments (Nano-ITC device) at 25 °C. In a typical experiment, the titrand (MelBSt) in the ITC sample cell was titrated with the specified titrant (placed in the Syringe) by an incremental injection of 2-µL aliquots at an interval of 300 s at a constant stirring rate of 250 r.p.m. All samples were degassed using a TA Instruments Degassing Station (model 6326) for 15 min prior to the titration. Data processing was performed with the NanoAnalyze (version 3.6.0 software) provided with the ITC equipment. The normalized heat changes were subtracted from the heat of dilution elicited by last few injections, where no further binding occurred; the corrected heat changes were plotted against the molar ratio of titrant versus titrand. The values for association constant (Ka) value were determined by fitting the data with a one-site independent-binding model. At most cases, the binding stoichiometry (N) number was fixed to 1 since it is a known parameter, which can restrain the data fitting and achieve more accurate results. The dissociation constant Kd = 1/Ka.
(§2) Supplementary Figure 1. ITC measurements. ITC measurements were performed at 25 °C as described in Methods. (a) Binding thermography. For all tests, ligands and proteins are buffer- […]
(§3) (1 picture or pasted object on this page, not shown here) […]
(§4) matched. For melibiose binding measurements, a solution of 80 mM or 10 mM in the absence or presence of NaCl at 100 mM, was injected into the ITC sample cell containing the WT MelBSt at 80 μM without or with 100 mM NaCl, respectively. With the D59C mutant, […] was used. For α-NPG binding measurements, 0.5 mM or 0.4 mM solution was used to titrate the WT or D59C mutant at 50 μM in the absence or presence or 100 mM NaCl, respectively. For the Na+ or Li+ binding measurements, 5 mM or 2 mM solution was used to titrate WT MelBSt at 80 μM without or with 50 mM melibiose, respectively; 40 mM solutions was used to titrate the D59C mutant. (b) binding isotherm. Curve fit was carried out with a one-site independent-binding model included in the NanoAnalyze software (version 3.6.0).

The target of experiment [1] is T2, WT MelBSt (Salmonella typhimurium, UniProt P30878).
T2 construct: Cys scanning mutagenesis for the full-length MelBSt; His10 (C); made in house; host or cells: E. coli DW2
The conditions noted are these: ITC 25 °C, data from publication or averaged with more tests, read-out: Kd of substrate binding, Melibiose, cited from earlier work.

For experiment [2], the target named is T2, WT MelBSt. The experiment is described as follows: biochemical. The format is binding. To be noted: for Kd: Kd of substrate binding, α-NPG, ITC 25 °C. The method, then:
as §1, §2, §3, §4

Experiment [3] addresses T2, WT MelBSt. Put plainly: biochemical. The format is binding. To be noted: for IC50: IC50 of galactoside displacement on bound D2G, α-NPG, 10 μM D2G. The method, then:
Fig. 1 Functional characterizations. a [^3H] Melibiose transport time course with intact cells. […] Inset, melibiose fermentation assay. Transformants with DW2 strain were plated on MacConkey agar plates containing 30 mM melibiose as the sole carbohydrate source and pH sensor neutral red, and incubated at 37 °C for 16–18 h before imaging. Number of tests = 3, from different batch of cells or duplicate measurements from same batch of sample. b Ligand binding by Trp→dansyl galactoside (D^2G) FRET assay. Purified proteins at 1 μM concentration in 20 mM Tris-HCl, pH 7.5, 100 mM CholCl, 10% glycerol, and 0.03% UDM were subjected to steady-state fluorescence measurements as described in Methods. On the time-trace, 1.8 μL of 1 mM D^2G at 10 μM was added into 180 μL of protein solutions at 1-min point, followed by supplying 10 μL of 5 mM DDMB or 5 mM α-NPG to displace the bound D^2G. For testing Na^+ or Li^+ binding, they are added into the solution before displacement with the second sugar. The structure of DDMB or α-NPG is shown in a chair form, and the carbon positions are labeled. Glycosidic bonds are indicated by arrows. Both are α-galactosides containing a substituent at the anomeric carbon-1. The data were from duplicate measurements.
Steady-state fluorescence measurements were performed with an AMINCO-Bowman series 2 spectrometer with purified MelBSt at 1 μM in 20 mM Tris-HCl, pH 7.5, 100 mM CholCl, 10% glycerol, 0.03% UDM. Using an excitation wavelength at 290 nm, the emission intensity was recorded at 490 nm. On a time-trace, D^2G, NaCl or LiCl, then DDMB or α-NPG, were sequentially added into the protein solutions at a 1 min-interval. […] An identical volume of water was used for the control. The decrease in intensity after each addition of DDMB or α-NPG was corrected by the dilution effect and plotted as a function of the accumulated α-NPG concentrations or estimated DDMB concentrations. The 50% inhibitory concentration (IC50) was determined by fitting a hyperbolic function to the data (OriginPro 2020b). The final concentration of each detergent is estimated to be 234 μM, which is less than their CMC value for (DDMB, 295 μM).
Supplementary Figure 2. Determination of DDMB binding affinity to MelBSt. (a) Titration with DDMB or a-NPG. MelBSt in 20 mM Tris-HCl, pH 7.5, 100 mM CholCl, 10% glycerol, 0.03% UDM without (1) or with 100 mM NaCl (2) were added with D2G at 10 μM at 1-min time point as indicated by triangle symbols on the Trp®dansyl FRET time trace. Starting at the 2-min of time point, DDMB or a-NPG solution was supplemented consecutively at a 1-min interval into MelBSt solution till no change in fluorescence intensity reached as indicated in star symbols. DDM and UDM were used as negative controls. 1% DDM or UDM was titrated into the mixture, The […]
At 2-min time point, additions of galactosides were colored in pink, a-NPG in yellow, UDM in blue, DDM in light blue, water in gray traces, respectively. (b) IC50 determination. The intensity decrease at each titration were corrected by the dilution effect, and plotted as a function of the accumulated DDMB or α-NPG concentration. The 50% inhibitory concentration (IC50) was determined by fitting the data to a hyperbolic function (OriginPro 2020b). Results are presented in […]
(1 picture or pasted object on this page, not shown here)

T1 sequence (P30878 whole entry D59C): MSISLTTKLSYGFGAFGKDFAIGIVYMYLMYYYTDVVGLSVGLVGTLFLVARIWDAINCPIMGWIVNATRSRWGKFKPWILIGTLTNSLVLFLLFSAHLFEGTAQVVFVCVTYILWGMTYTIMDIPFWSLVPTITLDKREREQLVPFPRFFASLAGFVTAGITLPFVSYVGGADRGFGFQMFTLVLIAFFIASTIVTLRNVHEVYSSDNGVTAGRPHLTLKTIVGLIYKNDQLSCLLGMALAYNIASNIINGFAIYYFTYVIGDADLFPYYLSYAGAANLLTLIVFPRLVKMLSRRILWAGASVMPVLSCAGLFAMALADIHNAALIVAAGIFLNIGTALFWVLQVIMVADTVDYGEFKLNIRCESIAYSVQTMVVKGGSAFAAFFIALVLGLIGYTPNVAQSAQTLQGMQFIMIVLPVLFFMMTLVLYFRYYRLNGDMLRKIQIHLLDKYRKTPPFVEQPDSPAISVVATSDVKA
T2 sequence (P30878 whole entry): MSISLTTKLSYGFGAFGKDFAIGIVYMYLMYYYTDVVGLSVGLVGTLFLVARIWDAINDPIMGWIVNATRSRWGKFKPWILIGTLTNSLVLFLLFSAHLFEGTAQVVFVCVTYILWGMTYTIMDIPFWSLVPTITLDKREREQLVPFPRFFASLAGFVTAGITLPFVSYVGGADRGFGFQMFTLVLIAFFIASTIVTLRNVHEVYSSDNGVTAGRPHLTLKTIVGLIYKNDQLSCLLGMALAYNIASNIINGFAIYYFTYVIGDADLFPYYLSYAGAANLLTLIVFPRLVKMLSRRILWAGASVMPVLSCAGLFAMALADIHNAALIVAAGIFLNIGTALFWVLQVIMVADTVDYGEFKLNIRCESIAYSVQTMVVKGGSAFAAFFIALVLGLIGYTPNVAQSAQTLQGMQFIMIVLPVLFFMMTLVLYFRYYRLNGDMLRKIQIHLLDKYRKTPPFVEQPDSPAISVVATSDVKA

Take `OC[C@H]1O[C@H](OCC2O[C@@H](O)[C@H](O)[C@@H](O)[C@@H]2O)[C@H](O)[C@@H](O)[C@H]1O` (stereo partly drawn) [Melibiose]: the Kd on D59C MelBSt (Apo, ITC 25 °C, read-out: Kd of substrate binding, Melibiose) was 4660 ± 100 µM; on D59C MelBSt (Na+ (100 mM), ITC 25 °C, read-out: Kd of substrate binding, Melibiose) it was 4960 ± 110 µM; at D59C MelBSt (read-out: Kd value for melibiose binding), 6000 µM; on WT MelBSt [1] (Apo) it was 9280 ± 230 µM; at WT MelBSt [1] (Na+ (100 mM)), 1090 ± 60 µM. In addition, the “Kd lower than that of WT” value on D59C MelBSt (apo state, melibiose binding) was determined as 2 fold.
For `O=[N+]([O-])c1ccc(OC2OC(CO)C(O)C(O)C2O)cc1` [α-NPG, 4-nitrophenyl-α-D-galactopyranoside], the Kd worked out at 10.5 ± 1.34 µM at D59C MelBSt (Kd of substrate binding, α-NPG, Apo, ITC 25 °C); 11.97 ± 0.09 µM on D59C MelBSt (Kd of substrate binding, α-NPG, Na+ (100 mM), ITC 25 °C); 43.2 ± 0.62 µM at WT MelBSt [2] (Apo); 25.7 ± 4.42 µM on WT MelBSt [2] (Na+ (100 mM)). Besides, at D59C MelBSt (apo D59C mutant), the “increased affinity versus WT” value is “about 4 fold”. In addition, the “greater affinity compared to the native substrate melibiose” value at WT MelBSt [2] (from Table 1) was 100 fold. Moreover, the values for the IC50 at WT MelBSt [3] (Apo) and on WT MelBSt [3] (Na+ (100 mM)) were 58.2 ± 11.5 µM and 23 ± 2.24 µM, respectively. Also, the “effect on Trp→D2G FRET of D2G-bound protein (displacement)” value at WT MelBSt [3] (added to D2G-bound WT MelBSt) is “large decrease in fluorescent intensity”.
